For experiment [1], the target named is T1, Activin receptor type-1 (Homo sapiens, UniProt Q04771).
T1 sequence (Q04771 whole entry): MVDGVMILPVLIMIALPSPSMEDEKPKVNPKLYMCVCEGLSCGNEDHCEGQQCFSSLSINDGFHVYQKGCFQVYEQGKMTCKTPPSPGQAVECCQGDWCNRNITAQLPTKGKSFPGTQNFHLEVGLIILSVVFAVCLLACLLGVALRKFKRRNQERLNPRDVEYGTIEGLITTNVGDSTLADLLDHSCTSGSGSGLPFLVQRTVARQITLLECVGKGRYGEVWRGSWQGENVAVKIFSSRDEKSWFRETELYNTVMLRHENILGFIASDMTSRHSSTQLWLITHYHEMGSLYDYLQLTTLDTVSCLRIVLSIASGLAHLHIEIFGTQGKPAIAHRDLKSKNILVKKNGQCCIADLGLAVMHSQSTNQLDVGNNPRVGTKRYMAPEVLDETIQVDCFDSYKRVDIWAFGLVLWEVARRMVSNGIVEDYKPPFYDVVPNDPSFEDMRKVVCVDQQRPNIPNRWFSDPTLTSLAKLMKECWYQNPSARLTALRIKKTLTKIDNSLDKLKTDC

Experiment [2] has as its target RAC-alpha serine/threonine-protein kinase (Homo sapiens, UniProt P31749).
Experiment [3] has as its target Mitotic checkpoint serine/threonine-protein kinase BUB1 (Homo sapiens, UniProt O43683).
Experiment [4] deals with T2, ATP-dependent RNA helicase DDX42 (Homo sapiens, UniProt Q86XP3).
T2 sequence (Q86XP3 whole entry): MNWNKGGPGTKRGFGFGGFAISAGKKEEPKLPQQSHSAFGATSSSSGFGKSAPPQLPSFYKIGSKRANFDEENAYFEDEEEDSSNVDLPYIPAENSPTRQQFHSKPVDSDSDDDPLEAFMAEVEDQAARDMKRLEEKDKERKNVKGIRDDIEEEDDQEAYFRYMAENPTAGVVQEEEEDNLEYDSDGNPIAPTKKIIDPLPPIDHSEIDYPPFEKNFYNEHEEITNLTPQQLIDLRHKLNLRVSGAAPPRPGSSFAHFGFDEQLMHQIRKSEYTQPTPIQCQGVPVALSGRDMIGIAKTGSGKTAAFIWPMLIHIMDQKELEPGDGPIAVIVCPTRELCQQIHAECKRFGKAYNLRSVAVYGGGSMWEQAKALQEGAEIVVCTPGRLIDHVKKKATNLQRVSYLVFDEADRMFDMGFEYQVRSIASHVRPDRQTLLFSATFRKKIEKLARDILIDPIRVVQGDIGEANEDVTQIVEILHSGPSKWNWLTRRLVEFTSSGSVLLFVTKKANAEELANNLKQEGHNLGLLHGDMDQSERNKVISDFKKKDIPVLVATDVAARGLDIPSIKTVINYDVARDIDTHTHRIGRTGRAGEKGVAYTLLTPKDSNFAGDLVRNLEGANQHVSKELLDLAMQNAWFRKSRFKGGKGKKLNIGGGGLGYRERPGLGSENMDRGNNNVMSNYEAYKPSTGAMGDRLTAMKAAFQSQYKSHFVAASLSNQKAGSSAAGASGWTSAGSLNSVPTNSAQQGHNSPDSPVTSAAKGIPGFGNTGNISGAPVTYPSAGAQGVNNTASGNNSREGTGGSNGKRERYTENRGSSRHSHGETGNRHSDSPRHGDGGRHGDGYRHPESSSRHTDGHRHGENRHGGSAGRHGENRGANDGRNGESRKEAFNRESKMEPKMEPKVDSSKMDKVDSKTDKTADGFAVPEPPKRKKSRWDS

The target of experiment [5] is Inosine-5'-monophosphate dehydrogenase 2 (Homo sapiens, UniProt P12268).
Experiment [6] deals with T3, Glycogen phosphorylase, brain form (Homo sapiens, UniProt P11216).
T3 sequence (P11216 whole entry): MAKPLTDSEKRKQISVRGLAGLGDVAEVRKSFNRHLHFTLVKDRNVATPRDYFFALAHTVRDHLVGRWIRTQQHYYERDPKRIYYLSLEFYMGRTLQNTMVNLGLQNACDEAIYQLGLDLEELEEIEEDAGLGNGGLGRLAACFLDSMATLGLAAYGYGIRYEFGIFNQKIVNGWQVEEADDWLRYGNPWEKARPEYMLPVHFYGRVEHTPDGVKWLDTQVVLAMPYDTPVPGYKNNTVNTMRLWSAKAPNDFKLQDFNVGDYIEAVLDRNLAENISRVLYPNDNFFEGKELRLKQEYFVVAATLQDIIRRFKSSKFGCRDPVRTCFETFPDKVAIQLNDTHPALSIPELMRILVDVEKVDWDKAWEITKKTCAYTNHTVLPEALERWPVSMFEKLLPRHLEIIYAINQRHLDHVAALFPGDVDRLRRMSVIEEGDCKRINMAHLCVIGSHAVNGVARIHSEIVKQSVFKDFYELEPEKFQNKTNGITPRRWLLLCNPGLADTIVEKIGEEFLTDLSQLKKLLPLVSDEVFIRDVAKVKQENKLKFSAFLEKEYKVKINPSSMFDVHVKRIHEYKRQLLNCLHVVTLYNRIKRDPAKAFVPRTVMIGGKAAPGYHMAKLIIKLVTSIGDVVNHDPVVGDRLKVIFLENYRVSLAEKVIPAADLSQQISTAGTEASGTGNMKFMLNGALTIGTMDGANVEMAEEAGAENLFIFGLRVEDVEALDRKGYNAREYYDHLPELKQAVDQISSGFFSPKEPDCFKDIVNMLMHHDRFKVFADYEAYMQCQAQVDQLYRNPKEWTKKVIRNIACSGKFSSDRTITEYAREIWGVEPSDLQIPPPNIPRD

In experiment [7] the target is TRAF2 and NCK-interacting protein kinase (Homo sapiens, UniProt Q9UKE5).
Sequence of TRAF2 and NCK-interacting protein kinase (Q9UKE5 whole entry): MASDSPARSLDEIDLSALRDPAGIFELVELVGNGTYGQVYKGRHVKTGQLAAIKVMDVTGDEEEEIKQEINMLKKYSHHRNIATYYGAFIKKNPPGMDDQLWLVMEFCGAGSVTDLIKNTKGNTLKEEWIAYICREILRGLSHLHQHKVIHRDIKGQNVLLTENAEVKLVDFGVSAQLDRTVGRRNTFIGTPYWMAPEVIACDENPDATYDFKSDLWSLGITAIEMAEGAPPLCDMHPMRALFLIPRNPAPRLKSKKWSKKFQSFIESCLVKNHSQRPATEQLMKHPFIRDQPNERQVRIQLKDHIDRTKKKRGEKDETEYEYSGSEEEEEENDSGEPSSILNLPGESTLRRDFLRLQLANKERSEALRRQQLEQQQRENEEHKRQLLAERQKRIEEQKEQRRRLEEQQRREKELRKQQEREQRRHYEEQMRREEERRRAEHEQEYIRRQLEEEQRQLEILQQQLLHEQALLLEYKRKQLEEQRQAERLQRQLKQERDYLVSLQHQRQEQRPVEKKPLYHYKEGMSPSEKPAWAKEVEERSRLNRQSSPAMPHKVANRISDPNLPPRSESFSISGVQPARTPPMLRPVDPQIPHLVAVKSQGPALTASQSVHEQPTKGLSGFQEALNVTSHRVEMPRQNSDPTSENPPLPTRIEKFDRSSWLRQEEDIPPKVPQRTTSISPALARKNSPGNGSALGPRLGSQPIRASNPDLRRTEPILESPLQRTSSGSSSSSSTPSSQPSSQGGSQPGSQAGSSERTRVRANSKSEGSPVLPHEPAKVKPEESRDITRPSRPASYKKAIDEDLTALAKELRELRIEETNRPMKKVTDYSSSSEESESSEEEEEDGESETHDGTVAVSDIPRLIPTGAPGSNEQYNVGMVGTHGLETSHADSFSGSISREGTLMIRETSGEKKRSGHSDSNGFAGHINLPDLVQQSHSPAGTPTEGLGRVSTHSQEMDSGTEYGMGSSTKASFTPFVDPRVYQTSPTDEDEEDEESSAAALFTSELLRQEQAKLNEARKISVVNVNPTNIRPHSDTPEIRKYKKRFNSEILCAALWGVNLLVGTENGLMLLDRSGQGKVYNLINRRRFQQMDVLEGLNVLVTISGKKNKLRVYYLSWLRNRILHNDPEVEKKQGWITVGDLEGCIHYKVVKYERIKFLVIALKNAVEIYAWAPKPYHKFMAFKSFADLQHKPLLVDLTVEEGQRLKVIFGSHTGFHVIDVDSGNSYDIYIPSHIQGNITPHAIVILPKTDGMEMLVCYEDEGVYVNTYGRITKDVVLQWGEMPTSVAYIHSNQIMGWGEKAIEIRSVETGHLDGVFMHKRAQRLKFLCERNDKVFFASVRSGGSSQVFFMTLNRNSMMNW
The target in experiment [8] is T4, Serine/threonine-protein kinase ULK3 (Homo sapiens, UniProt Q6PHR2).
T4 sequence (Q6PHR2 whole entry): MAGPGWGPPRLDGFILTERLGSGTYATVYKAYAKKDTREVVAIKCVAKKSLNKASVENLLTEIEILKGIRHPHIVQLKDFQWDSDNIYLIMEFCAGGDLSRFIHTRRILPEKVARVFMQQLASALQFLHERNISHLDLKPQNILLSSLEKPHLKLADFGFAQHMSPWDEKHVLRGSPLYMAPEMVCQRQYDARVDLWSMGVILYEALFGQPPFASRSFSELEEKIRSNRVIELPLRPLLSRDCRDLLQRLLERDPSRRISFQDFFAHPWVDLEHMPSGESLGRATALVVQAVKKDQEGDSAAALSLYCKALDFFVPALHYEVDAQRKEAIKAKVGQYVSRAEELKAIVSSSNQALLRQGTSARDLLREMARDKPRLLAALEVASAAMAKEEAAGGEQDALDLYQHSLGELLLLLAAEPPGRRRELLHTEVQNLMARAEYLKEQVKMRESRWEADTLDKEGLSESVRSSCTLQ

The structures appear in SMILES notation. Calls of active or inactive are those of the source.
Note: in the data inactive means no Kd found up to 30 µM.

Sequence of RAC-alpha serine/threonine-protein kinase (P31749 whole entry): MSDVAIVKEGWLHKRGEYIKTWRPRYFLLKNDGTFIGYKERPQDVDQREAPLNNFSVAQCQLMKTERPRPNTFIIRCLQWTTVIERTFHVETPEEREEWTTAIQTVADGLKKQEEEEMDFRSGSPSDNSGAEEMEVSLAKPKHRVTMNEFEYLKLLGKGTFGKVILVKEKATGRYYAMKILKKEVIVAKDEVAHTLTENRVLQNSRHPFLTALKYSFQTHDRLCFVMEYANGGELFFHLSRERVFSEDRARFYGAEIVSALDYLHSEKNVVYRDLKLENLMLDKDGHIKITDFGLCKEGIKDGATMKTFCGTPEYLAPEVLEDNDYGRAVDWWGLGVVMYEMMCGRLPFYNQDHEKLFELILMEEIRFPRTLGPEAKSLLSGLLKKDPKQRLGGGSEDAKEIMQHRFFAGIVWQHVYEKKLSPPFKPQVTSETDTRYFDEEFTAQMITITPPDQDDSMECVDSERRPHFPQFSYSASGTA
Sequence of Mitotic checkpoint serine/threonine-protein kinase BUB1 (O43683 whole entry): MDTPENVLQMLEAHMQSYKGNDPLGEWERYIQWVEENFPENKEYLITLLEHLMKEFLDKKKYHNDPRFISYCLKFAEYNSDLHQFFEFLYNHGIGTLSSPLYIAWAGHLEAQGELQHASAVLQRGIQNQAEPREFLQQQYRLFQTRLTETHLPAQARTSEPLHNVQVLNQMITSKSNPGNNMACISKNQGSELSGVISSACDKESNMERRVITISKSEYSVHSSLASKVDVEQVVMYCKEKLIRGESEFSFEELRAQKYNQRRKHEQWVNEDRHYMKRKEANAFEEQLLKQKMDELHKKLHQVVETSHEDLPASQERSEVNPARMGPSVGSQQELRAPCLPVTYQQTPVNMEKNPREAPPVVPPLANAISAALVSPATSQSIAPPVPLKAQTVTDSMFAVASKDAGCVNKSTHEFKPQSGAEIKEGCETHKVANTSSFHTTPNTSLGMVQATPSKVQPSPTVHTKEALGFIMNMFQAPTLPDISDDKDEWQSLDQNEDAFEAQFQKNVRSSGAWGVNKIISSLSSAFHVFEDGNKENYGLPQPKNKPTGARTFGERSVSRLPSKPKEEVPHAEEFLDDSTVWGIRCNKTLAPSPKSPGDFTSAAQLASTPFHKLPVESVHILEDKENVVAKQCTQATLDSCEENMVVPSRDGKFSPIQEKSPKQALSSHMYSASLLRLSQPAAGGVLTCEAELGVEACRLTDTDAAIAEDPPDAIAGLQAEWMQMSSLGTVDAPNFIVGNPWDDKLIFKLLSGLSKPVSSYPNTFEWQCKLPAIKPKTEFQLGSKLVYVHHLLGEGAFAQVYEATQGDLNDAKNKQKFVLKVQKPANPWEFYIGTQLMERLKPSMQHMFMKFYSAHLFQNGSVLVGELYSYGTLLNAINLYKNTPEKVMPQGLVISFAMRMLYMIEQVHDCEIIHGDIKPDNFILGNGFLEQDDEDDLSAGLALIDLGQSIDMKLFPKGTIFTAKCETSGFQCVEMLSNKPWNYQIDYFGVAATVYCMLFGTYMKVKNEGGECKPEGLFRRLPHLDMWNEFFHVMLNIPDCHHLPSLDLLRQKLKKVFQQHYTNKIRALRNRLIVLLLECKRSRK

`CCN1CCN(Cc2ccc(Nc3ncc(F)c(-c4cc(F)c5nc(C)n(C(C)C)c5c4)n3)nc2)CC1` [ABEMACICLIB]: the Kd in experiment [1], in experiment [2], in experiment [3], in experiment [4], in experiment [5] and in experiment [6] was > 30 µM (inactive) in each case. For the same molecule, the Kd in experiment [7] and in experiment [8] was > 30 µM (inactive) each time.

For the molecule `Cn1cc(-c2[nH]c3cc(NC(=O)[C@H](N)C4CCCCC4)cc4c3c2C=NNC4=O)cn1`, the Kd in experiment [1], in experiment [2], in experiment [3], in experiment [4], in experiment [5] and in experiment [6] was > 30 µM (inactive) each time. Also, the Kd is 0.251 µM in experiment [7] and 1.17 µM (active) in experiment [8].

With `C[C@@H]1COC(Nc2ccc3ncnc(Nc4ccc(OCc5nccs5)c(Cl)c4)c3c2)=N1` [VARLITINIB], the Kd in experiment [1], in experiment [2], in experiment [3], in experiment [4], in experiment [5] and in experiment [6] was > 30 µM (inactive) throughout. The Kd in experiment [7] and in experiment [8] was > 30 µM (inactive) each time.

With `CCc1cc2c(cc1N1CCC(N3CCOCC3)CC1)C(C)(C)c1[nH]c3cc(C#N)ccc3c1C2=O` [ALECTINIB], the Kd in experiment [1], in experiment [2], in experiment [3], in experiment [4], in experiment [5] and in experiment [6] was > 30 µM (inactive) in each case. Besides, the Kd in experiment [7] and in experiment [8] was > 30 µM (inactive) in each case.

Consider `C#Cc1cccc(Nc2ncnc3cc4c(cc23)OCCOCCOCCO4)c1` [ICOTINIB], for which the Kd was > 30 µM (inactive) in experiment [1]; > 30 µM (inactive) in experiment [2]; 2.91 µM (active) in experiment [3]; > 30 µM (inactive) in experiment [4]; > 30 µM (inactive) in experiment [5]; > 30 µM (inactive) in experiment [6]. The Kd in experiment [7] and in experiment [8] was > 30 µM (inactive) in each case.

Take `CC1(COc2ccc3c(c2)ncn3-c2ccc3cccc(N4CCC(N)CC4)c3n2)COC1` [CRENOLANIB]: the Kd in experiment [1], in experiment [2], in experiment [3], in experiment [4], in experiment [5] and in experiment [6] was > 30 µM (inactive) each time. Further, the Kd in experiment [7] was 0.107 µM; in experiment [8] it was > 30 µM (inactive).

In the case of `Cn1c(=O)c(F)c(Nc2ccc(I)cc2F)c2c(=O)n(C[C@@H](O)CO)cnc21` [TAK-733], the Kd in experiment [1], in experiment [2], in experiment [3], in experiment [4], in experiment [5] and in experiment [6] was > 30 µM (inactive) in each case. For the same molecule, the Kd in experiment [7] and in experiment [8] was > 30 µM (inactive) each time.

Consider `COc1cc2ncnc3c2cc1OCCCCCN(C)Cc1ccc(Br)cc1N3` [JNJ-26483327], for which the Kd in experiment [1], in experiment [2], in experiment [3], in experiment [4], in experiment [5] and in experiment [6] was > 30 µM (inactive) in each case. The Kd in experiment [7] and in experiment [8] was > 30 µM (inactive) each time.

Take `FC(F)(F)c1ccc(CNc2ccc(Cc3c[nH]c4ncc(Cl)cc34)cn2)cn1` [PEXIDARTINIB]: the Kd in experiment [1], in experiment [2], in experiment [3], in experiment [4], in experiment [5] and in experiment [6] was > 30 µM (inactive) in each case. For the same molecule, the Kd in experiment [7] and in experiment [8] was > 30 µM (inactive) each time.

Take `COc1ccc2c(OCc3nnc4ccc(-c5ccccc5)nn34)ccnc2c1` [AMG-208]: the Kd in experiment [1], in experiment [2], in experiment [3], in experiment [4], in experiment [5] and in experiment [6] was > 30 µM (inactive) each time. In addition, the Kd in experiment [7] and in experiment [8] was > 30 µM (inactive) throughout.

As to `O=C(NC[C@H](O)CO)c1ccncc1Nc1ccc(I)cc1F` [PIMASERTIB], the Kd in experiment [1], in experiment [2], in experiment [3], in experiment [4], in experiment [5] and in experiment [6] was > 30 µM (inactive) in each case. For the same molecule, the Kd in experiment [7] and in experiment [8] was > 30 µM (inactive) each time.

For the molecule `NC(=O)c1ccc(N(C(N)=O)c2c(F)cccc2F)nc1-c1ccc(F)cc1F` [VX-702], the Kd in experiment [1], in experiment [2], in experiment [3], in experiment [4], in experiment [5] and in experiment [6] was > 30 µM (inactive) in each case. Besides, the Kd in experiment [7] and in experiment [8] was > 30 µM (inactive) each time.

Values taken from ChEMBL document CHEMBL3991601, “The target landscape of clinical kinase drugs” (Science, 2017).
